The values that follow come from patent US20110054179A1, “MMP-2 AND/OR MMP-9 INHIBITOR” (priority 2008, published 2011).

Each structure is given as a SMILES string.

The subject of assay [1] is elastase-induced lung injury. Put plainly: Rabbit model of elastase-induced lung injury: lung histology (alveolar destruction, airway subepithelial fibrotic changes). The format is in vivo. From the text: Rabbits were divided into three groups (n=10 animals/group). Two hundred U/kg of porcine pancreatic elastase (PPE) was intratracheally administered into the lungs of the animals in the Vehicle and the Compound A group. The animals in the Sham group was intratracheally administered the same volume of saline instead of PPE. The rabbits were dissected 28 days after PPE administration. The lung tissue of each rabbit was fixed in formalin to prepare histological sections thereof. Two hours prior to the administration of PPE, Vehicle (0.5% tragacanth) or Compound A (10 mg/kg) was orally administered to the rabbits in the Vehicle and the Compound A group, respectively; from the next day, the oral administration of Vehicle or Compound A was continued once a day, 5 days a week until the end of the experiment. The histological sections were immunohistochemically stained using respective antibodies against MMP-2 or MMP-9. Then, under the microscope, the extent of MMP-2 and MMP-9 expression was evaluated, and expressed as a score. The extent of the fibrotic changes in the airway subepithelial region and the extent of alveolar destruction were also observed.

Assay [2] relates to bleomycin- or asbestos-induced lung fibrosis. The conditions noted are these: bleomycin- or asbestos-induced lung fibrosis animal model; cited from earlier work.
Setting [3] is: 28 days after PPE, 10 mg/kg oral, vs. Vehicle group.

With `CCOc1ccc(-c2nc(-c3cccc(C(=O)O)n3)cs2)cc1OCC` [Compound A, 6-[2-(3,4-diethoxyphenyl)thiazol-4-yl]pyridine-2-carboxylic acid], the “Alveolar Mean Linear Intercept (Average ± Standard deviation)” value in assay [1] (28 days after PPE 200 U/kg intratracheal, 10 mg/kg oral once a day, 5 days a week, p<0.01 vs. Vehicle) amounted to 72.8 ± 2.6 μm ##. In addition, in assay [1] (setting [3]), the alveolar destruction entry is given as “significantly suppressed” and the “thickening of the airway subepithelial layer resulted from fibrotic changes” value is recorded as “alleviated”.

As to `CNC(=O)[C@H](Cc1c[nH]c2ccccc12)NC(=O)[C@@H](CC(=O)NO)CC(C)C` [GM6001], in assay [2], the “increase in MMP activity and the number of white blood cell infiltrated in the bronchoalveolar lavage fluid” value was “suppressed”; the “lung fibrosis in the histological and biochemical aspects” value is listed as “suppressed”.
